Assay results taken from patent US20220267310A1, “QUINAZOLINE AND CINNOLINE DERIVATIVES AS DNA-PK INHIBITOR” (MEDSHINE DISCOVERY INC., priority 2019, published 2022).

Key:
[1] = target: T1, DNA-PK (h) (Homo sapiens, UniProt P78527); assay: DNA-PK kinase inhibitory activity (HTRF, Eurofins); assay type: biochemical; settings: ATP: 10 μM
T1 construct: Eurofins Pharma Discovery Service (contract assay)
Experimental: (§1) This experiment was tested at Eurofins Pharma Discovery Service, Reaction Biology Corp. (RBC)
(§2) […] DNA-PK: Mg/ATP; GST-cMyc-p53; EDTA; Ser15 antibody; ATP: 10 μM; biotinylated phosphatidylinositol-3,4,5-triphosphate; GST label GRP1 PH domain; streptavidin and phycocyanin; europium-labelled monoclonal antibody against GST.
(§3) DNA-PK (h) was incubated in a determination buffer containing 50 nM GST-cMyc-p53 and Mg/ATP (density as required). The reaction was initiated by adding a mixture of Mg/ATP. After incubating at room temperature for 30 min, a termination solution containing EDTA was added to terminate the reaction. Finally, a detection buffer (containing labeled anti-GST monoclonal antibody and europium-labeled anti-phosphate Ser15 antibody against phosphorylated p53) was added. Then, the board was read in time-resolved fluorescence mode, and a Homogeneous Time Resolved Fluorescence (HTRF) signal was measured according to the formula HTRF=10000×(Em665 nm/Em620 nm).

[2] = target: T2, PI3K (p120γ) (Homo sapiens, UniProt P48736); assay: PI3K (p120γ) kinase inhibitory activity (HTRF); assay type: biochemical
T2 construct: Eurofins Pharma Discovery Service (contract assay)
Experimental: as §1, §2
as §3, with “PI3K (p120γ) was” for “DNA-PK (h) was”, “containing phosphatidylinositol 4,5-diphosphate” for “containing 50 nM GST-cMyc-p53”, “EDTA and biotinylated phosphatidylinositol-3,4,5-triphosphate” for “EDTA”, “monoclonal antibody, PH domain of GRP1 with GST label and streptavidin and phycyanin” for “monoclonal antibody”, “and an HTRF” for “and a Homogeneous Time Resolved Fluorescence (HTRF)”

[3] = test system: human small cell lung cancer NCI-H69 xenograft tumor model; assay: NCI-H69 xenograft, mono and combination with etoposide, 24-day experiment (Table 8); assay type: in vivo, BALB/c nude mice; settings: for Tumor volume (mm^3) (0th day) / Tumor volume (mm^3) (24th day): average ± SEM, n = 9
Experimental: Experiment example 3: in vivo pharmacodynamics of human small cell lung cancer NCI-H69 cell subcutaneous xenograft tumor BALB/c nude mouse model:
Experimental animals: Female BALB/c nude mice, 6-8 weeks old, weighing 15-22 grams; supplier: Shanghai Linchang Biotechnology Co., LTD. (Linchang, Shanghai)
Human small cell lung cancer NCI-H69 cells (ATCC, item number: HTB-119 and ECACC-95111733) were cultured in vitro in a culture condition of RPMI-1640 medium with 10% fetal bovine serum, 100 U/mL penicillin and 100 μg/mL streptomycin, incubated at 37° C. and 5% CO2. Conventional passage was carried out twice a week. When cell saturation was 80%-90% and the number reaches the requirement, cells were collected, counted and inoculated.
0.2 mL (10×10^6) NCI-H69 cells (with matrix glue, and volume ratio of 1:1) were subcutaneously inoculated into a right back of each mouse, and group administration was initiated when the average tumor volume reaches about 110-120 mm^3.
The tested compound was prepared as a 5 mg/mL clarified solution with 10% DMSO+50% polyethylene glycol 400+40% water as the solvent.
The experimental indicators refers to study whether tumor growth was inhibited, delayed, or cured. Tumor diameter was measured twice a week with a vernier caliper. The calculation formula of the tumor volume was V=0.5a×b^2, and a and b represent the long diameter and short diameter of the tumor, respectively.
The antitumor efficacy of the compound was evaluated by TGI (%) or relative tumor proliferation rate T/C (%). TGI (%) reflects the tumor growth inhibition rate. The calculation of TGI (%): TGI (%)=[1−(average tumor volume at the end of administration of a certain treatment group−average tumor volume at the beginning of administration of the treatment group)/(average tumor volume at the end of treatment in solvent control group−average tumor volume at the beginning of treatment in solvent control group)]×control group.
Relative tumor proliferation rate T/C (%): the calculation formula was as follows: T/C %=[…] TRTV/CRTV group (TRTV: treatment group RTV; CRTV: negative control group RTV). According to results of tumor measurement, Relative Tumor Volume (RTV) was calculated by the formula RTV=Vt/V0, where V0 was the average tumor volume measured in group administration (i.e., d0), and Vt was the average tumor volume measured in a certain single measurement. TRTV and CRTV collect data on the same day.
Statistic analysis includes an average value and a standard error (SEM) of tumor volume at each time point for each group. […] If there was no significant difference in F value, Dunnet (2-sided) method was applied to analysis. All data were analyzed using SPSS 17.0. P<0.05 was considered as having a significant difference.

[4] = target: T3, PI3K (p110σ/p85α) (Homo sapiens, UniProt O00329); assay: PI3K (p110σ/p85α) kinase inhibitory activity (HTRF); assay type: biochemical
T3 construct: Eurofins Pharma Discovery Service (contract assay)

[5] = 40 mg/kg, PO, QD + etoposide 10 mg/kg, IP
[6] = 40 mg/kg, PO, QD + etoposide 10 mg/kg, IP, 3-day administration, 4-day withdrawal
[7] = 10 mg/kg, BID + etoposide 10 mg/kg, IP
[8] = 20 mg/kg, QD + etoposide 10 mg/kg, IP
[9] = 40 mg/kg, PO, BID + etoposide 10 mg/kg, IP

T3 sequence (O00329 whole entry): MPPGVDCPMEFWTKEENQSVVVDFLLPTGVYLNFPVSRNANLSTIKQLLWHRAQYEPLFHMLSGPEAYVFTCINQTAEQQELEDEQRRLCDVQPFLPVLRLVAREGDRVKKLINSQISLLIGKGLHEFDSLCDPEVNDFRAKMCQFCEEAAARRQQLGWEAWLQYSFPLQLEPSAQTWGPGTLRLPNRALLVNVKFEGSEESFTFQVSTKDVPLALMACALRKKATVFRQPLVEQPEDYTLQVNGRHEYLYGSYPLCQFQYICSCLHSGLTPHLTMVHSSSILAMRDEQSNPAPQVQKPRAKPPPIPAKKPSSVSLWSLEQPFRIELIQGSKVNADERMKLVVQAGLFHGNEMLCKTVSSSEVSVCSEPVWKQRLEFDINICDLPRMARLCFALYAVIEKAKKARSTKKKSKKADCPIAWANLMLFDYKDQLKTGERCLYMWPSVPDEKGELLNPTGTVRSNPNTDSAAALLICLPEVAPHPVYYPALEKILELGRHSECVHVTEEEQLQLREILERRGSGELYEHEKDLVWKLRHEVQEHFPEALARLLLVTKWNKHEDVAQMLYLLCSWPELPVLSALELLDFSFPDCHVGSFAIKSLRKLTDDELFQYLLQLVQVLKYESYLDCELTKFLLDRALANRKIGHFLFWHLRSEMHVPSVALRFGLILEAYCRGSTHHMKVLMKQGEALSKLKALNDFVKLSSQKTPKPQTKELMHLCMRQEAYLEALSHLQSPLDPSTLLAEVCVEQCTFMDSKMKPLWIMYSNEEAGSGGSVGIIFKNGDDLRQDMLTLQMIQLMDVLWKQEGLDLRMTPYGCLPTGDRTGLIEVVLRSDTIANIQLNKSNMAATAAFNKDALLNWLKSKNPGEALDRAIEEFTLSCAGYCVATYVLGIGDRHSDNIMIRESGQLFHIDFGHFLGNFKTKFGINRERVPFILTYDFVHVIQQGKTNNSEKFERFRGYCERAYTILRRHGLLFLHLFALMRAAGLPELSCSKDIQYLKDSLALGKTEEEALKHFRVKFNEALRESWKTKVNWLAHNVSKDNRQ
T3 sequence (P27986 whole entry partner): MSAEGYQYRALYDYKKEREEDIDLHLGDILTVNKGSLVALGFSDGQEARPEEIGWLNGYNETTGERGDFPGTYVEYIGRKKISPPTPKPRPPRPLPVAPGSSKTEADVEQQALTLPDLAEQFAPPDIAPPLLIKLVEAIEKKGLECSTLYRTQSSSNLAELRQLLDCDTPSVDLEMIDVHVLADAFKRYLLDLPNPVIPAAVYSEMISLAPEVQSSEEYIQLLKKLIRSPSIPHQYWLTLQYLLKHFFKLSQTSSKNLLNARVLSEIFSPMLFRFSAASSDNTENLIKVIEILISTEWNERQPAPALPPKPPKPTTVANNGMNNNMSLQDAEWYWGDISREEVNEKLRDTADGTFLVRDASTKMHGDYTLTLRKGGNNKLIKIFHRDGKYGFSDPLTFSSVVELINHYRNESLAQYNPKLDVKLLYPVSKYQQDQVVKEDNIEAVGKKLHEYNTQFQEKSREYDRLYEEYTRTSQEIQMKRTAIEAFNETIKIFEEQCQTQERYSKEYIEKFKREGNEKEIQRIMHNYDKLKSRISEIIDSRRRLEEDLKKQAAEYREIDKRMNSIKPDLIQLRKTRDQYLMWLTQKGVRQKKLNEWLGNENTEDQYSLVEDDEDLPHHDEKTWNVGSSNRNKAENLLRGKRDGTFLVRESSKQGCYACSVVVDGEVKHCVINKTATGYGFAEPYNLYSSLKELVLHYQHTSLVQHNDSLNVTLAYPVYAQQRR
T2 sequence (P48736 whole entry): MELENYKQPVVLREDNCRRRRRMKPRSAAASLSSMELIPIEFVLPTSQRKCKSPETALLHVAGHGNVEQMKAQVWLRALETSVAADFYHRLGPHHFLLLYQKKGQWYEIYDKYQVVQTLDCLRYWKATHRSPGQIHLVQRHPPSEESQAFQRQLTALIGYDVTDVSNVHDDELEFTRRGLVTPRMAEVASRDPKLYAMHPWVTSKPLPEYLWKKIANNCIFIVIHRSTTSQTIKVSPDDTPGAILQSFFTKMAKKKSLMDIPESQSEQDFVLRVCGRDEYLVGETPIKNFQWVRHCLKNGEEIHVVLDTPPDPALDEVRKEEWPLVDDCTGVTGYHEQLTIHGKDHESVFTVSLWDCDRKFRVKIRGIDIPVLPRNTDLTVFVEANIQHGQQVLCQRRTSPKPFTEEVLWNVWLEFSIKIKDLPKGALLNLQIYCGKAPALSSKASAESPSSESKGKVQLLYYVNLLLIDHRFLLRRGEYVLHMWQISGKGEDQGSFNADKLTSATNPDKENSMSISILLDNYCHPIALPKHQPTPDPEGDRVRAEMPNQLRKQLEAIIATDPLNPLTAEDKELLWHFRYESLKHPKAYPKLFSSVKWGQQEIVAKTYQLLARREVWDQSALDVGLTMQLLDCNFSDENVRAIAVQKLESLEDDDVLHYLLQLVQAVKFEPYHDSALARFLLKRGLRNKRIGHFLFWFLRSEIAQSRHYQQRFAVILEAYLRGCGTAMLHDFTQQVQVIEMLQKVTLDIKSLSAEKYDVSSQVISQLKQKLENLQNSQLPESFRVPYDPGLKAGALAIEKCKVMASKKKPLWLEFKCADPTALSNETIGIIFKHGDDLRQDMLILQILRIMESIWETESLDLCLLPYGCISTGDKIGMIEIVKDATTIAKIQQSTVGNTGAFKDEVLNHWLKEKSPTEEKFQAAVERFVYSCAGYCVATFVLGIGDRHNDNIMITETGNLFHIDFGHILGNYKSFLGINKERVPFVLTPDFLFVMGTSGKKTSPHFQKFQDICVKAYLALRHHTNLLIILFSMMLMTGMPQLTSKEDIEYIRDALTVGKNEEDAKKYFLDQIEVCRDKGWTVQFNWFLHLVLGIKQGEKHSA

SMILES: COc1ccc([C@@H](O)c2cc(-c3nncc4cc(N5CCOCC5)ccc34)c(F)cc2Cl)nn1 [Embodiment M3814, reference compound]
- IC50 [1]: 1 nM
- IC50 [2]: 1220 nM
- RTV (24th day) [3, 5]: 3.47 ± 0.24
- T/C (%) (24th day) [3, 5]: 43.1%
- TGI (%) (24th day) [3, 5]: 66.1%
- Tumor volume (mm^3) (0th day) [3, 6]: 114 ± 8 mm^3
- Tumor volume (mm^3) (24th day) [3, 5]: 389 ± 28 mm^3
- RTV (24th day) ([3]; 40 mg/kg, QD, alone): 6.77 + 0.45
- T/C (%) (24th day) ([3]; 40 mg/kg, QD, alone): 84.1%
- TGI (%) (24th day) ([3]; 40 mg/kg, QD, alone): 19.8%
- Tumor volume (mm^3) (0th day) ([3]; 40 mg/kg, QD, alone): 114 ± 8 mm^3
- Tumor volume (mm^3) (24th day) ([3]; 40 mg/kg, QD, alone): 764 ± 59 mm^3
- IC50 [4]: 14 nM

SMILES: COc1ccc(C(O)c2cc(-c3cnnc4c(F)c(N5CCOCC5)cc(F)c34)c(F)cc2Cl)nn1 (single isomer, unassigned) [Embodiment 19]
- IC50 [1]: 2.1 nM
- IC50 [2]: 9150 nM
- RTV (24th day) [3, 7]: 4.93 ± 0.42
- T/C (%) (24th day) [3, 7]: 61.2%
- TGI (%) (24th day) [3, 7]: 46.5%
- Tumor volume (mm^3) (0th day) ([3]; 10 mg/kg, BID + etoposide 10 mg/kg, IP, 3-day administration, 4-day withdrawal): 114 ± 9 mm^3
- Tumor volume (mm^3) (24th day) [3, 7]: 548 ± 44 mm^3
- RTV (24th day) [3, 8]: 4.08 ± 032
- T/C (%) (24th day) [3, 8]: 50.6%
- TGI (%) (24th day) [3, 8]: 56.8%
- Tumor volume (mm^3) (0th day) ([3]; 20 mg/kg, QD + etoposide 10 mg/kg, IP, 3-day administration, 4-day withdrawal): 114 ± 7 mm^3
- Tumor volume (mm^3) (24th day) [3, 8]: 464 ± 41 mm^3
- RTV (24th day) ([3]; 40 mg/kg, BID, alone): 6.91 ± 0.18
- T/C (%) (24th day) ([3]; 40 mg/kg, BID, alone): 85.8%
- TGI (%) (24th day) ([3]; 40 mg/kg, BID, alone): 16.8%
- Tumor volume (mm^3) (0th day) ([3]; 40 mg/kg, BID, alone): 114 ± 7 mm^3
- Tumor volume (mm^3) (24th day) ([3]; 40 mg/kg, BID, alone): 789 ± 49 mm^3
- RTV (24th day) [3, 9]: 2.28 ± 0.26
- T/C (%) (24th day) [3, 9]: 28.4%
- TGI (%) (24th day) [3, 9]: 81.5%
- Tumor volume (mm^3) (0th day) ([3]; 40 mg/kg, PO, BID + etoposide 10 mg/kg, IP, 3-day administration, 4-day withdrawal): 114 ± 10 mm^3
- Tumor volume (mm^3) (24th day) [3, 9]: 264 ± 37 mm^3
- RTV (24th day) [3, 5]: 3.11 ± 0.18
- T/C (%) (24th day) [3, 5]: 38.6%
- TGI (%) (24th day) [3, 5]: 70.5%
- Tumor volume (mm^3) (0th day) [3, 6]: 114 ± 7 mm^3
- Tumor volume (mm^3) (24th day) [3, 5]: 353 ± 33 mm^3
- IC50 [4]: 600 nM
